Assay results as given in the NIST ThermoML archive (doi:10.1016/j.tca.2014.04.026).

Assay: molar heat capacity at constant pressure
Conditions: 101 kPa, Liquid, Small sample (50 mg) DSC

CCn1cc[n+](C)c1.N#C[C-](C#N)C#N [1-ethyl-3-methyl-1H-imidazolium tricyanomethanide]
Conditions	molar heat capacity at constant pressure [J/K/mol]
296.2 K	357
300.2 K	360
304.2 K	362
308.2 K	364
312.2 K	366
316.2 K	367
320.2 K	369
324.2 K	370
328.2 K	372
332.2 K	374
336.2 K	377
340.2 K	379
344.2 K	382
348.2 K	384
352.2 K	387
356.2 K	390
360.2 K	393
364.2 K	396
368.2 K	399
372.2 K	403
